# Measured values taken from patent US9447044B2, “Thioaryl derivatives as GPR120 agonists” (LG LIFE SCIENCES LTD., priority 2012, dated 2016).
# Target: T1, hGPR120 (Homo sapiens, UniProt Q5NUL3)
# T1 construct: expressed in transfected cells; host or cells: CHO-K1
# T1 sequence (Q5NUL3 1-361): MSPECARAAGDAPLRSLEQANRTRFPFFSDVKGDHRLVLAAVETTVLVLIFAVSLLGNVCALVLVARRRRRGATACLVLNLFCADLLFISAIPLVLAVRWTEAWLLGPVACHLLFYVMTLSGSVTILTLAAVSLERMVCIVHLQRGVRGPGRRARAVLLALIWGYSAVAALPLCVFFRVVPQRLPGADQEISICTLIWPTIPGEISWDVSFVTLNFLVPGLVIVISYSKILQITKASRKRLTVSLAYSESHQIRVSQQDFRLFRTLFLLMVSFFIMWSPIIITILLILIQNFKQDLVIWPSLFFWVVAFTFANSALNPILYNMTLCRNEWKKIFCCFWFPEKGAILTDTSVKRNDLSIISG
# Assay: Measurement of activity of GPR120 agonist (cell-based assay), calcium fluorescence
# Conditions: CHO-K1 cells expressing Ga16 and hGPR120; Calcium 5 dye fluorescence; activity class
# Summary of the method: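 CHO-K1 cells co-expressing Gα16 and hGPR120, loaded with Calcium 5 dye for 1 h at 37° C, received serially diluted agonists (final 0.5% DMSO). Fluorescence (Ex 485/Em 525 nm) was expressed as relative percent over 0.1% DMSO-only wells; activity binned as A >20 μM, B 20–2 μM, C 2–0.2 μM, D <0.2 μM.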
row,Compound,EC50
1,"Cc1c(CCC(=O)O)ccc(OCc2cccnc2SC2CCCC2)c1C [Example 80, 3-[4-(2-cyclopentylsulfanyl-pyridin-3-ylmethoxy)-2,3-dimethyl-phenyl]-propionic acid]",< 200 nM
2,"O=C(O)C[C@H]1COc2cc(OCc3cccnc3SC3CCCC3)ccc21 [Example 82, [(R)-6-(2-cyclopentylsulfanyl-pyridin-3-ylmethoxy)-2,3-dihydro-benzofuran-3-yl]-acetic acid]",< 200 nM
3,"O=C(O)C1CC1c1ccc(OCc2cccnc2SCC2CC2)c(F)c1 (centres unmarked) [Example 84, 2-[4-(2-cyclopropylmethylsulfanyl-pyridin-3-ylmethoxy)-3-fluoro-phenyl]-cyclopropane carboxylic acid]",< 200 nM
4,"CC(C)Sc1ncccc1COc1ccc(C2CC2C(=O)O)c(Cl)c1 (centres unmarked) [Example 89, 2-[2-chloro-4-(2-isopropylsulfanyl-pyridin-3-ylmethoxy)-phenyl]-cyclopropane carboxylic acid]",200 to 2000 nM
5,O=C(O)C1CC1c1ccc(OCc2cccc(SC3CCC3)n2)cc1Cl (centres unmarked) [Example 90],< 200 nM
6,"CC(Cc1ccc(OCc2cccnc2SCC2CC2)c(Cl)c1)C(=O)O (centres unmarked) [Example 91, 3-[3-chloro-4-(2-cyclopropylmethylsulfanyl-pyridin-3-ylmethoxy)-phenyl]-2-methyl-propionic acid]",< 200 nM
7,"CCCSc1ncccc1COc1ccc(CC(C)C(=O)O)cc1Cl (centres unmarked) [Example 92, 3-[3-chloro-4-(2-propylsulfanyl-pyridin-3-ylmethoxy)-phenyl]-2-methyl-propionic acid]",< 200 nM
8,"CC(C)Sc1cccc(COc2ccc(CC(C)C(=O)O)cc2Cl)n1 (centres unmarked) [Example 93, 3-[3-chloro-4-(6-isopropylsulfanyl-pyridin-2-ylmethoxy)-phenyl]-2-methyl-propionic acid]",< 200 nM
9,"CC(Cc1ccc(OCc2cccc(SC3CCC3)n2)c(Cl)c1)C(=O)O (centres unmarked) [Example 96, 3-[3-chloro-4-(6-cyclobutylsulfanyl-pyridin-2-ylmethoxy)-phenyl]-2-methyl-propionic acid]",< 200 nM

# Next, values leading:
row,EC50,Compound
1,< 200 nM,"O=C(O)C[C@@H]1COc2cc(OCc3cccnc3SC3CCCC3)ccc21 [Example 81, [(S)-6-(2-cyclopentylsulfanyl-pyridin-3-ylmethoxy)-2,3-dihydro-benzofuran-3-yl]-acetic acid]"
2,< 200 nM,"O=C(O)C1CC1c1ccc(OCc2cccc(SC3CCCC3)n2)c(F)c1 (centres unmarked) [Example 85, 2-[4-(6-cyclopentylsulfanyl-pyridin-2-ylmethoxy)-3-fluoro-phenyl]-cyclopropane carboxylic acid]"
3,< 200 nM,"O=C(O)C1CC1c1ccc(OCc2cccc(SC3CCC3)n2)c(F)c1 (centres unmarked) [Example 86, 2-[4-(6-cyclobutylsulfanyl-pyridin-2-ylmethoxy)-3-fluoro-phenyl]-cyclopropane carboxylic acid]"
4,< 200 nM,"CC(Cc1ccc(OCc2cccc(SC3CCCC3)n2)c(Cl)c1)C(=O)O (centres unmarked) [Example 94, 3-[3-chloro-4-(6-cyclopentylsulfanyl-pyridin-2-ylmethoxy)-phenyl]-2-methyl-propionic acid]"

# Same assay, conditions: CHO-K1 cells expressing Ga16 and hGPR120; Calcium 5 dye fluorescence; numeric value
row,EC50,Compound
1,110 nM,"CC(C)Sc1ncccc1COc1ccc(C2CC2C(=O)O)cc1F (centres unmarked) [Example 83, 2-[3-fluoro-4-(2-isopropylsulfanyl-pyridin-3-ylmethoxy)-phenyl]-cyclopropane carboxylic acid]"
2,64000 nM,"O=C(O)C1CC1c1ccc(OCc2cccnc2SC2CCCC2)c(F)c1 (centres unmarked) [Example 87, 2-[4-(2-cyclopentylsulfanyl-pyridin-3-ylmethoxy)-3-fluoro-phenyl]-cyclopropane carboxylic acid]"
3,57000 nM,"O=C(O)C1CC1c1ccc(OCc2cccnc2SC2CCC2)c(F)c1 (centres unmarked) [Example 88, 2-[4-(2-cyclobutylsulfanyl-pyridin-3-ylmethoxy)-3-fluoro-phenyl]-cyclopropane carboxylic acid]"
4,88 nM,"CC(Cc1ccc(OCc2cccnc2SC2CCC2)c(Cl)c1)C(=O)O (centres unmarked) [Example 95, 3-[3-chloro-4-(2-cyclobutylsulfanyl-pyridin-3-ylmethoxy)-phenyl]-2-methyl-propionic acid]"
